In US6007814A, “Therapeutic uses of the hypervariable region of monoclonal antibody M195 and constructs thereof” (priority 1992, dated 1999):

Columns and labels:
Type in all cases: cell-based, human
CFU-GM = assay: Clonogenic assay of normal bone marrow progenitors, CFU-GM; details: normal BM; 4HC 100 μM, VP-16 5 μg/ml; 1 hr at 37° C.; scored at day 14; mean ± SD vs control cultures
Protocol: (§1) Bone Marrow Cells. Bone marrow was aspirated from the posterior iliac crest of healthy volunteers after obtaining written informed consent and BM mononuclear cells were collected after Ficoll-Hypaque gradient (1.077 g/cm3).
(§2) Incubation Procedure and Culture Techniques. Tumor cells and normal BM cells were adjusted to a concentration of 2×10^6 /ml and 20×10^6 /ml, respectively. […] After completion of 1 hr incubation at 37° C., the cells were put on ice for five minutes and washed twice with RPMI supplemented with FCS. To simulate "ex vivo" BM purging conditions, the HL-60 cells were also incubated together with irradiated (3,000 cGy) BM cells (1:10 ratio). […] Cells were incubated at 37° C. in humidified atmosphere of 5% of CO2 in air and scored for colonies (>50 cells) after 7 days of incubation using an inverted microscope.
(§3) After treatment, normal bone marrow cells were assayed for colonies derived from CFU-GM, BFU-E and CFU-GEM as already described (150). […] Quadruplicate cultures were incubated as described above and the colonies were scored after 14 days of incubation. […] Colonies (>20 cells) were scored after 10 days of incubation.
(§4) DATA ANALYSIS. All experiments were performed three or more times and the mean+standard deviation (SD) values of each experiment were calculated. Colony counts after drug treatment were expressed as a percent of the untreated control cells.

BFU-E = assay: Clonogenic assay of normal bone marrow progenitors, BFU-E; details: normal BM; 4HC 100 μM, VP-16 5 μg/ml; 1 hr at 37° C.; scored at day 14; mean ± SD vs control cultures
Protocol: as §1, §2, §3, §4

HL-60 cell line = assay: HL-60 clonogenic assay (colony-forming inhibition) after ex vivo purging treatment; details: 4HC 100 μM, VP-16 5 μg/ml, 1 hr incubation at 37° C., colonies scored after 7 days, mean + SD
Protocol: Human Cell Line. HL-60 is a human acute promyelocytic leukemia cell line growing with a doubling time of 24 hours and a plating efficiency of 7-12% (148). The cell line was maintained in exponential growth in RPMI-1640 supplemented with 10% fetal calf serum (FCS-Hyclone, Logan, U.S.A.) 1% L-Glutamine at 37° C. in a humidified atmosphere of 5% CO2 air. Cell viability was always higher than 95% and cells were free of mycoplasma contamination.
as §2, §4

With `O=P1(N(CCCl)CCCl)NC(OO)CCO1` (stereo not drawn) [4HC] the “COLONY FORMING INHIBITION CFU-GM” value (CFU-GM) was 84 ± 10%, the “COLONY FORMING INHIBITION BFU-E” value (BFU-E) was 80.3 ± 12.5% and the colony-forming inhibition (HL-60 cell line) was 99.5+0.8%.
